Measured values taken from paper PMC6383986, “Fragment-Based Covalent Ligand Screening Enables Rapid Discovery of Inhibitors for the RBR E3 Ubiquitin Ligase HOIP” (Journal of the American Chemical Society, 2019).

Target: T1, 3 × FLAG-tagged HOIP RBR in HEK293T cells (Homo sapiens, UniProt Q96EP0)
T1 construct: expressed in transfected cells; host or cells: HEK293T, transient, modified pcDNA3.1(+)
Assay: ABPP in-gel fluorescence, competition with TCO probe (15)
Format: cell-based
Conditions: 30 μM 7 h pretreatment, then 3 μM (15) 2 h; vs (11i), (17), DMSO
From the text: PCR purification kit QIAquick Qiagen 28104
Maxiprep Kit Endofree plasmid Maxi Kit Qiagen 12362
E coli Competent DH5α New England C2987H
E coli Competent BL21 GOLD(DE3) Agilent 230132
LDS loading buffer NuPAGE 4× LDS loading buffer Invitrogen NP0008
Trypsin Cell Culture TE Trypsin Gibco R-001-100
Trypsin Sequencing Grade Modified Trypsin Promega V511A
Chymotrypsin Sequencing Grade Chymotrypsin Promega V106A
Cy5-Tetrazine Fluorescent probe for IEDDA click chemistry DC Biosciences CCR-1189-1 Tz-PEG4-Biotin Tetrazine linked biotin Jena Bioscience CLK-027-25
NeutrAvidin beads High capacity NeutrAvidin agarose resin Thermo 29204 […]
5.1 Activity-based protein profiling – In-gel fluorescence […]
HEK293T cells were cultured and transfected with 3×FLAG-tagged HOIP RBR wild type or C885A mutant, or mock as described in section 4.8 above. […] The cells were harvested and lysed (50 mM Tris-HCl, pH 7.5, 1.5 mM MgCl2, 150 mM NaCl, 5% glycerol, 0.8% v/v IGEPAL-CA630, 25 mM NaF, 1 mM Na3VO4, complete protease inhibitor), and the protein concentration was determined by the BCA assay as described in section […]
50 µL. The lysates were incubated at 23 °C, 600 rpm (Eppendorph Thermomixer) for 1 h, then analyzed by SDS PAGE (section 4.5) and in-gel fluorescence (LI-COR) at 700 nm, and by Western Blot as described in section 4.6 (Figure 6E and Supplementary Figures S15, S16). […]

T1 sequence (Q96EP0 697-1072): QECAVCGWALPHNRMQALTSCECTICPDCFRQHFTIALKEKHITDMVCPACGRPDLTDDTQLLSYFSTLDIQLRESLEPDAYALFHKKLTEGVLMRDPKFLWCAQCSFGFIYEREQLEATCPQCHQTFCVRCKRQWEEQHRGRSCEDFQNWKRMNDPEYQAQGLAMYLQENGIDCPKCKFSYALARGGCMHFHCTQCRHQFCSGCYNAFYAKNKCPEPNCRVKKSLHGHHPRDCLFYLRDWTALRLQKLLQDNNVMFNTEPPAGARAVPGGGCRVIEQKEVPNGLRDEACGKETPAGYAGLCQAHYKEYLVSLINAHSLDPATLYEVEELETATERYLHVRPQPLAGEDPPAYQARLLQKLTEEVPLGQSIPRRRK

## COC(=O)/C=C/CNC(=O)c1cc2c([nH]c1=O)CCCC2 [Compound 11a]
  in-gel fluorescence of HOIP RBR labeled by probe (15): significant reduction of the in-gel fluorescence of HOIP RBR
